Results: US20090156646A1, “PYRIDYLPHENOL COMPOUND AND USE THEREOF” (TAKEDA PHARMACEUTICAL COMPANY LIMITED, priority 2005, published 2009)
Blank lines part the entries; values can stand above or below the molecule they belong to.

How the values were obtained:
[1] = biological target: T1, human metastin receptor hOT7T175 (Homo sapiens, UniProt Q969F8, L364H); test: binding inhibiting activity: 125I-metastin (40-54) binding to cell membrane fraction of h175 KB34 cells; details: room temperature 60 minutes, read-out: binding inhibiting activity, represented by the IC50 value
T1 construct: encoding the entire length of human metastin receptor hOT7T175; expressed in transfected cells; host or cells: CHO/dhFr- cells (ATCC #CRL-9096) stably transfected with pAKKO-hOT7T175; clone h175-16 was used as whole cells for FLIPR
T1 sequence (Q969F8 whole entry L364H): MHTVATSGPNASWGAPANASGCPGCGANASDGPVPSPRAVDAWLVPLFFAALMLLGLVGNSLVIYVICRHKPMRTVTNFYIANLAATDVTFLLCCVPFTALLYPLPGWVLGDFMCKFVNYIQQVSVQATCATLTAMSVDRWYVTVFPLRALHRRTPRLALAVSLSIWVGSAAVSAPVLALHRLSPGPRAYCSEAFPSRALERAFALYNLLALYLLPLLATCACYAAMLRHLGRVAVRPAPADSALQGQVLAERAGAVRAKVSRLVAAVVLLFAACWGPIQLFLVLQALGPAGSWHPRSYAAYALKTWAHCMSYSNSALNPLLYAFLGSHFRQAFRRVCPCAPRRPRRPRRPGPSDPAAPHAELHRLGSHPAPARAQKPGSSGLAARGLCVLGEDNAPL
How it was run: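 Membranes came from CHO/dhfr− cells stably expressing human hOT7T175 (clone h175 KB34) and were diluted 250-fold for use. Binding of 125I-metastin (40-54) was run in 20 mM Tris, 2.5 mM magnesium acetate and 2 mM EGTA, pH 7.4, with protease inhibitors, either without BSA or with 1 mg/ml BSA.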

Compound: COc1ccc(C(=O)Nc2nc(-c3ccc(Cl)cc3O)cc(-c3cccc(NC(=O)CCN)c3)c2C#N)cc1.Cl [Example 252, N-[4-[3-(β-alanylamino)phenyl]-6-(4-chloro-2-hydroxyphenyl)-3-cyanopyridin-2-yl]-4-methoxybenzamide hydrochloride]
- melting point: 193 to 197 °C
- IC50 [1]: ≤ 10 µM

Compound: Cl.N#Cc1c(-c2cccc(NC(=O)CN3CCCC3)c2)cc(-c2ccc(F)cc2O)nc1NC(=O)c1ccco1 [Example 259, N-(3-cyano-6-(4-fluoro-2-hydroxyphenyl)-4-{3-[(pyrrolidin-1-ylacetyl)amino]phenyl}pyridin-2-yl)-2-furamide hydrochloride]
- melting point: 203 to 205 °C
- IC50 [1]: ≤ 10 µM

Compound: Cl.N#Cc1c(-c2cccc(NC(=O)[C@H](N)Cc3ccccc3)c2)cc(-c2ccc(F)cc2O)nc1NC(=O)c1ccco1 [Example 263, N-{3-[3-cyano-6-(4-fluoro-2-hydroxyphenyl)-2-(2-furoylamino)pyridin-4-yl]phenyl}-D-phenylalaninamide hydrochloride]
- melting point: 186 to 188 °C
- IC50 [1]: ≤ 10 µM

Compound: CCCC(N)CC(=O)Nc1cccc(-c2cc(-c3ccc(F)cc3O)nc(NC(=O)c3ccco3)c2C#N)c1.Cl (centres unmarked) [Example 265, N-[4-{3-[(3-aminohexanoyl)amino]phenyl}-3-cyano-6-(4-fluoro-2-hydroxyphenyl)pyridin-2-yl]-2-furamide hydrochloride]
- melting point: 214 to 217 °C
- IC50 [1]: ≤ 10 µM

Compound: CC(C)C(N)CC(=O)Nc1cccc(-c2cc(-c3ccc(F)cc3O)nc(NC(=O)c3ccco3)c2C#N)c1.Cl (centres unmarked) [Example 266, N-[4-{3-[(3-amino-4-methylpentanoyl)amino]phenyl}-3-cyano-6-(4-fluoro-2-hydroxyphenyl)pyridin-2-yl]-2-furamide hydrochloride]
- melting point: 214 to 217 °C
- IC50 [1]: ≤ 10 µM

Compound: C[C@@H](N)CC(=O)Nc1cccc(-c2cc(-c3ccc(Cl)cc3O)nc(NC(=O)c3nccs3)c2C#N)c1.Cl [Example 270, N-[4-(3-{[(3R)-3-aminobutanoyl]amino}phenyl)-6-(4-chloro-2-hydroxyphenyl)-3-cyanopyridin-2-yl]-1,3-thiazole-2-carboxamide hydrochloride]
- melting point: 218 to 221 °C
- IC50 [1]: ≤ 10 µM

Compound: Cc1ccc(C(=O)Nc2nc(-c3ccc(Cl)cc3O)cc(-c3cccc(NC(=O)CC(C)N)c3)c2C#N)o1.Cl (centres unmarked) [Example 271, N-[4-{3-[(3-aminobutanoyl)amino]phenyl}-6-(4-chloro-2-hydroxyphenyl)-3-cyanopyridin-2-yl]-5-methyl-2-furamide hydrochloride]
- melting point: 206 to 212 °C
- IC50 [1]: ≤ 10 µM

Compound: Cl.N#Cc1c(-c2ccc(F)c(C(=O)NCCN)c2)cc(-c2ccc(F)cc2O)nc1NC(=O)c1ccco1 [Example 281, N-[4-(3-{[(2-aminoethyl)amino]carbonyl}-4-fluorophenyl)-3-cyano-6-(4-fluoro-2-hydroxyphenyl)pyridin-2-yl]-2-furamide hydrochloride]
- melting point: 255 to 264 °C
- IC50 [1]: ≤ 10 µM

Compound: Cl.N#Cc1c(-c2cccc(NC(=O)[C@H]3CCCC[C@H]3N)c2)cc(-c2ccc(F)cc2O)nc1NC(=O)c1ccco1 [Example 283, N-{4-[3-({[(1S,2R)-2-aminocyclohexyl]carbonyl}amino)phenyl]-3-cyano-6-(4-fluoro-2-hydroxyphenyl)pyridin-2-yl}-2-furamide hydrochloride]
- melting point: 237 to 239 °C
- IC50 [1]: ≤ 10 µM

Compound: CCCC(CC(=O)Nc1cccc(-c2cc(-c3ccc(F)cc3O)nc(NC(=O)c3ccco3)c2C#N)c1)N(C)C.Cl (centres unmarked) [Example 285, N-[3-cyano-4-(3-{[3-(dimethylamino)hexanoyl]amino}phenyl)-6-(4-fluoro-2-hydroxyphenyl)pyridin-2-yl]-2-furamide hydrochloride]
- melting point: 180 to 182 °C
- IC50 [1]: ≤ 10 µM

Compound: CN(C)[C@@H]1CCCC[C@@H]1C(=O)Nc1cccc(-c2cc(-c3ccc(F)cc3O)nc(NC(=O)c3ccco3)c2C#N)c1.Cl [Example 286, N-{3-cyano-4-[3-({[(1S,2R)-2-(dimethylamino)cyclohexyl]carbonyl}amino)phenyl]-6-(4-fluoro-2-hydroxyphenyl)pyridin-2-yl}-2-furamide hydrochloride]
- melting point: 205 to 207 °C
- IC50 [1]: ≤ 10 µM

More lines, now with the values ahead:

- melting point: 226 to 235 °C
- IC50 [1]: ≤ 10 µM
Compound: Cl.N#Cc1c(-c2cccc(NC(=O)C3CCNC3)c2)cc(-c2ccc(Cl)cc2O)nc1NC(=O)c1ccco1 (centres unmarked) [Example 241, N-{3-[6-(4-chloro-2-hydroxyphenyl)-3-cyano-2-(2-furoylamino)pyridin-4-yl]phenyl}pyrrolidine-3-carboxamide hydrochloride]

- melting point: 166 to 170 °C
- IC50 [1]: ≤ 10 µM
Compound: Cl.N#Cc1c(-c2cccc(NC(=O)CCCn3ccnc3)c2)cc(-c2ccc(Cl)cc2O)nc1NC(=O)c1ccco1 [Example 242, N-[6-(4-chloro-2-hydroxyphenyl)-3-cyano-4-(3-{[4-(1H-imidazole-1-yl)butanoyl]amino}phenyl)pyridin-2-yl]-2-furamide hydrochloride]

- melting point: 227 to 229 °C
- IC50 [1]: ≤ 10 µM
Compound: COc1ccccc1C(=O)Nc1nc(-c2ccc(F)cc2O)cc(-c2cccc(C(=O)NCCN)c2)c1C#N.Cl [Example 244, N-[4-(3-{[(2-aminoethyl)amino]carbonyl}phenyl)-3-cyano-6-(4-fluoro-2-hydroxyphenyl)pyridin-2-yl]-2-methoxybenzamide hydrochloride]

- melting point: 234 to 235 °C
- IC50 [1]: ≤ 10 µM
Compound: COc1ccccc1C(=O)Nc1nc(-c2ccc(F)cc2O)cc(-c2cccc(C(=O)NCCCn3ccnc3)c2)c1C#N.Cl [Example 245, N-{3-cyano-6-(4-fluoro-2-hydroxyphenyl)-4-[3-({[3-(1H-imidazol-1-yl)propyl]amino}carbonyl)phenyl]pyridin-2-yl}-2-methoxybenzamide hydrochloride]

- melting point: 244 to 246 °C
- IC50 [1]: ≤ 10 µM
Compound: COc1ccccc1C(=O)Nc1nc(-c2ccc(F)cc2O)cc(-c2cccc(C(=O)NCC(C)(C)CN)c2)c1C#N.Cl [Example 246, N-[4-(3-{[(3-amino-2,2-dimethylpropyl)amino]carbonyl}phenyl)-3-cyano-6-(4-fluoro-2-hydroxyphenyl)pyridin-2-yl]-2-methoxybenzamide hydrochloride]

- melting point: 232 to 233 °C
- IC50 [1]: ≤ 10 µM
Compound: COc1ccccc1C(=O)Nc1nc(-c2ccc(F)cc2O)cc(-c2cccc(NC(=O)CCN)c2)c1C#N.Cl [Example 247, N-[4-[3-(β-alanylamino)phenyl]-3-cyano-6-(4-fluoro-2-hydroxyphenyl)pyridin-2-yl]-2-methoxybenzamide hydrochloride]

- melting point: 242 to 244 °C
- IC50 [1]: ≤ 10 µM
Compound: Cl.N#Cc1c(-c2cccc(C(=O)NCCN)c2)cc(-c2ccc(Cl)cc2O)nc1NC(=O)c1nccs1 [Example 249, N-[4-(3-{[(2-aminoethyl)amino]carbonyl}phenyl)-6-(4-chloro-2-hydroxyphenyl)-3-cyanopyridin-2-yl]-1,3-thiazole-2-carboxamide hydrochloride]

- melting point: 208 to 212 °C
- IC50 [1]: ≤ 10 µM
Compound: Cl.N#Cc1c(-c2cccc(C(=O)NCCCn3ccnc3)c2)cc(-c2ccc(Cl)cc2O)nc1NC(=O)c1nccs1 [Example 250, N-{6-(4-chloro-2-hydroxyphenyl)-3-cyano-4-[3-({[3-(1H-imidazol-1-yl)propyl]amino}carbonyl)phenyl]pyridin-2-yl}-1,3-thiazole-2-carboxamide hydrochloride]

- melting point: 224 to 225 °C
- IC50 [1]: ≤ 10 µM
Compound: Cl.N#Cc1c(-c2cccc(NC(=O)C(N)c3ccccc3)c2)cc(-c2ccc(F)cc2O)nc1NC(=O)c1ccco1 (centres unmarked) [Example 258, N-[4-(3-{[amino(phenyl)acetyl]amino}phenyl)-3-cyano-6-(4-fluoro-2-hydroxyphenyl)pyridin-2-yl]-2-furamide hydrochloride]

- melting point: 212 to 214 °C
- IC50 [1]: ≤ 10 µM
Compound: CCC(N)CC(=O)Nc1cccc(-c2cc(-c3ccc(F)cc3O)nc(NC(=O)c3ccco3)c2C#N)c1.Cl (centres unmarked) [Example 264, N-[4-{3-[(3-aminopentanoyl)amino]phenyl}-3-cyano-6-(4-fluoro-2-hydroxyphenyl)pyridin-2-yl]-2-furamide hydrochloride]

- melting point: 218 to 221 °C
- IC50 [1]: ≤ 10 µM
Compound: C[C@H](N)CC(=O)Nc1cccc(-c2cc(-c3ccc(Cl)cc3O)nc(NC(=O)c3nccs3)c2C#N)c1.Cl [Example 269, N-[4-(3-{[(3S)-3-aminobutanoyl]amino}phenyl)-6-(4-chloro-2-hydroxyphenyl)-3-cyanopyridin-2-yl]-1,3-thiazole-2-carboxamide hydrochloride]

- melting point: 182 to 188 °C
- IC50 [1]: ≤ 10 µM
Compound: COc1c(C(=O)NCCN)cccc1-c1cc(-c2ccccc2O)nc(NC(=O)c2ccco2)c1C#N.Cl [Example 273, N-[4-(3-{[(2-aminoethyl)amino]carbonyl}-2-methoxyphenyl)-3-cyano-6-(2-hydroxyphenyl)pyridin-2-yl]-2-furamide hydrochloride]

- melting point: 220 to 223 °C
- IC50 [1]: ≤ 10 µM
Compound: Cl.N#Cc1c(-c2cccc(NC(=O)[C@@H]3CCCC[C@@H]3N)c2)cc(-c2ccc(F)cc2O)nc1NC(=O)c1ccco1 [Example 284, N-{4-[3-({[(1R,2S)-2-aminocyclohexyl]carbonyl}amino)phenyl]-3-cyano-6-(4-fluoro-2-hydroxyphenyl)pyridin-2-yl}-2-furamide hydrochloride]

- melting point: 217 to 218 °C
- IC50 [1]: ≤ 10 µM
Compound: CN(C)[C@H]1CCCC[C@H]1C(=O)Nc1cccc(-c2cc(-c3ccc(F)cc3O)nc(NC(=O)c3ccco3)c2C#N)c1.Cl [Example 287, N-{3-cyano-4-[3-({[(1R,2S)-2-(dimethylamino)cyclohexyl]carbonyl}amino)phenyl]-6-(4-fluoro-2-hydroxyphenyl)pyridin-2-yl}-2-furamide hydrochloride]
